In assay [1] the target is T1, NanoLuc-HDAC6 (Homo sapiens, UniProt Q9UBN7).
T1 construct: expressed in transfected cells; host or cells: HEK293
The assay can be described thus: Competitive displacement of SAHA-TOM tracer from NanoLuc-HDAC6, BRET (Example 15). The note with it: HEK293 cells, serially-diluted inhibitor with 1 uM SAHA-TOM (PBI-4968), two hours, FIG. 17. Format: binding.

Assay [2] relates to panel of 11 kinases (N- and C-terminal NanoLuc fusions). The assay can be described thus: NanoLuc fusion protein array screen, cell-free TNT expression, BRET response ratio (Example 17). Format: binding. The note with it: cell-free TNT reactions diluted 1:100, tracer with or without excess free drug, 2 h room temperature, FIG. 19. As for the experimental part: Each TNT® reaction was diluted 1:100 in PBS and plated in replicates into wells of 96-well plates. […] For each TNT® reaction, 4 replicates with 2 uM BIRB TOM/4 replicates with 2 uM BIRB-TOM+4 uM BIRB796 (total of 2×96-well plates) and 4 replicas with 1 uM Dasatinib-TOM/4 replicates with 1 uM Dasatinib-TOM+5 uM Dasatinib (total of 2×96-well plates) were performed. The reactions were incubated with constant mixing for 2 h at room temperature. […] To determine response ratios, the BRET values with tracer alone were divided by the BRET values with tracer+unmodified.

Assay [3] concerns the target T1, NanoLuc-HDAC6. The assay is described as follows: Intracellular BRET tracer binding to NanoLuc-HDAC6 (Example 1). The note with it: HEK293 cells, compared to SAHA-TMR (PBI-4967), FIG. 2. As for the experimental part:
HEK293 cells were transfected using FuGene HD (Promega Corp.) with plasmid DNA encoding a NanoLuc-HDAC6 fusion protein. NanoLuc-HDAC6 DNA was diluted 1:1000 with a promoterless carrier DNA (pGEM3Z) to yield a final concentration of 50 ng/well total DNA in 96-well plate format (at a seeding density of 20,000 cells/well). Twenty-four hours post-transfection, cells were then incubated with serially-diluted tracer in the presence or absence of a molar excess of unlabeled SAHA (as a specificity control). Following equilibration with the drug tracers, furimazine (a coelenterazine derivative substrate for NanoLuc; Promega Corp.) was added at a concentration of 20 uM, and BRET was quantified on a Varioskan luminometer. The specific BRET signal was calculated by subtracting the non-specific signal (in the presence of unlabeled SAHA) from the signal generated from the SAHA tracer alone.
In general terms: BRET reads energy transfer from a luciferase to a nearby fluorophore.

The next assay concerns the target T2, HDAC1 (Homo sapiens, UniProt Q13547).
T2 construct: expressed in transfected cells; host or cells: HeLa
The assay can be described thus: SAHA tracer BRET with HDAC1 NANOLUC fusion in HeLa cells (Example 23). Format: binding. The note with it: FIG. 29. As for the experimental part: (§1) HeLa cells were transfected with plasmid DNA encoding NANOLUC fusions with the entire family of non-sirtuin histone deacetylases (HDACs 1-11). […] Cells were incubated at 37° C. for two hours. […] BRET was then measured on a BMG Clariostar luminometer equipped with 450 nm bandpass and 610 nm longpass filters. […] To determine specific, background corrected BRET values, the nonspecific BRET values at each concentration of tracer were subtracted from BRET values with tracer alone.

The target of another assay is T3, HDAC2 (Homo sapiens, UniProt Q92769).
T3 construct: expressed in transfected cells; host or cells: HeLa
The assay can be described thus: SAHA tracer BRET with HDAC2 NANOLUC fusion in HeLa cells (Example 23). Format: binding. The note with it: FIG. 29. As for the experimental part: as §1

In another assay the target is T4, HDAC3 (Homo sapiens, UniProt O15379).
T4 construct: expressed in transfected cells; host or cells: HeLa
The assay can be described thus: SAHA tracer BRET with HDAC3 NANOLUC fusion in HeLa cells (Example 23). Format: binding. The note with it: FIG. 29. As for the experimental part:
as §1

Another assay has as its target T5, HDAC8 (Homo sapiens, UniProt Q9BY41).
T5 construct: expressed in transfected cells; host or cells: HeLa
T5 sequence (Q9BY41 1-377): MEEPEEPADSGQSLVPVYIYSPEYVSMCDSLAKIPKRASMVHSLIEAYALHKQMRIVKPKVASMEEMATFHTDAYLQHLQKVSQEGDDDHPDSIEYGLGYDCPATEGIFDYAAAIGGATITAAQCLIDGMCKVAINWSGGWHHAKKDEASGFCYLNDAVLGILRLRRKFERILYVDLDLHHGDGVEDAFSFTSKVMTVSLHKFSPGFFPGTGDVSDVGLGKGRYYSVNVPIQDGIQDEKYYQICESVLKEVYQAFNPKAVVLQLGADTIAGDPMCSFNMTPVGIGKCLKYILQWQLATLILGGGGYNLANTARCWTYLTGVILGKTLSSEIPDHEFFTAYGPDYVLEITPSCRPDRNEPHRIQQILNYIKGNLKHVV
The assay can be described thus: SAHA tracer BRET with HDAC8 NANOLUC fusion in HeLa cells (Example 23). It counts as binding. The note with it: FIG. 29. As for the experimental part: as §1

Another assay has as its target T6, HDAC6 (Homo sapiens, UniProt Q9UBN7).
T6 construct: expressed in transfected cells; host or cells: HeLa
The assay is described as follows: SAHA tracer BRET with HDAC6 NANOLUC fusion in HeLa cells (Example 23). Format: binding. The note with it: FIG. 30. As for the experimental part:
as §1

In the next assay the target is T7, HDAC10 (Homo sapiens, UniProt Q969S8).
T7 construct: expressed in transfected cells; host or cells: HeLa
T7 sequence (Q969S8 1-669): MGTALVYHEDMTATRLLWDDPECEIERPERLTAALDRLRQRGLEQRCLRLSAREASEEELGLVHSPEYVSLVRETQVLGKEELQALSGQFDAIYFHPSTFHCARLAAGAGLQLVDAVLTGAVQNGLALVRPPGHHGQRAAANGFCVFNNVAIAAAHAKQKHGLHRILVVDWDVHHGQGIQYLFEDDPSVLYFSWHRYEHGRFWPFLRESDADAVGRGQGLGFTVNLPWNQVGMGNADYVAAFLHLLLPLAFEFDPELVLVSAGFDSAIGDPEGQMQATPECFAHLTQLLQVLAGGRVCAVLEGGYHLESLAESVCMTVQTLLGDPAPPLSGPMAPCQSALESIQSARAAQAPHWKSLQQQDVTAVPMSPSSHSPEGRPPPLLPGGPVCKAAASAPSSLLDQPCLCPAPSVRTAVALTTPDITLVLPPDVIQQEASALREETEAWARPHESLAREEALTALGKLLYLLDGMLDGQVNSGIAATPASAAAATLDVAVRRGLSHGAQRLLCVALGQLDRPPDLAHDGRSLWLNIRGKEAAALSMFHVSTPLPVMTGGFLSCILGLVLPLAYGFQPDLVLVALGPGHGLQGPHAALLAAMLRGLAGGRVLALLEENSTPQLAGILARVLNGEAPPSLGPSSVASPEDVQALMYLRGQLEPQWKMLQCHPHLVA
The assay is described as follows: SAHA tracer BRET with HDAC10 NANOLUC fusion in HeLa cells (Example 23). It counts as binding. The note with it: FIG. 30. As for the experimental part:
as §1

The test system of another assay is Class IIa HDACs. The assay is described as follows: SAHA tracer BRET with Class IIa HDAC NANOLUC fusions in HeLa cells (Example 23). It counts as binding. The note with it: FIG. 31. As for the experimental part: as §1
The next assay has as its target T8, NanoLuc-p38alpha (Homo sapiens, UniProt Q16539).
T8 construct: expressed in transfected cells; host or cells: HEK293
The assay can be described thus: BRET tracer binding to NanoLuc-p38alpha in HEK293 cells (Example 10). The note with it: serially-diluted tracer, 37° C. two hours, FIG. 11. As for the experimental part: (§2) Cells were incubated at 37° C. for two hours.

In assay [4] the test system is NanoLuc fusions to various members of the MAPK pathway. The assay is described as follows: Tracer selectivity across p38/MAPK pathway NanoLuc fusions, BRET response ratio (Example 12). It counts as binding. The note with it: HEK293 cells, 2 uM tracer with or without 4 uM BIRB796, FIG. 13. As for the experimental part: (§3) Cells were incubated at 37° C. for two hours. […] To determine response ratios, the BRET values with tracer alone were divided by the BRET values with tracer+unmodified BIRB796.

Assay [5] concerns the target T9, PKCalpha-NanoLuc (Homo sapiens, UniProt P17252).
T9 construct: expressed in transfected cells; host or cells: HEK293
The assay can be described thus: Tracer BRET with PKCalpha-NanoLuc in MAPK panel (Example 12). The note with it: HEK293 cells, 2 uM tracer with or without 4 uM BIRB796, FIG. 13. It counts as binding. As for the experimental part:
as §3

The target in assay [6] is T9, PKCalpha-NanoLuc. The assay is described as follows: Tracer affinity BRET, PKCalpha-NanoLuc (Example 13). It counts as binding. The note with it: HEK293 cells, serially-diluted tracer with or without 4 uM BIRB796, FIGS. 14 and 15. As for the experimental part:
as §2

For assay [7], the target named is T1, NanoLuc-HDAC6. The assay can be described thus: Tracer affinity BRET, NanoLuc-HDAC6 (Example 13). Format: binding. The note with it: HEK293 cells, serially-diluted tracer with or without 4 uM BIRB796, FIGS. 14 and 15. As for the experimental part: as §2
The target of assay [8] is 11S-BRD4/114-Histone H3.3 complex (Homo sapiens, UniProt O60885). The assay is described as follows: Competitive displacement of iBET-NCT tracer from 11S-BRD4/Histone H3.3-114 complex, BRET (Example 22). The note with it: HEK293 cells, 2 uM iBET-NCT/PBI-4966 tracer, FIG. 28. It counts as binding.

Each structure is given as a SMILES string.

T1 sequence (Q9UBN7 with tags, fused parts or gaps): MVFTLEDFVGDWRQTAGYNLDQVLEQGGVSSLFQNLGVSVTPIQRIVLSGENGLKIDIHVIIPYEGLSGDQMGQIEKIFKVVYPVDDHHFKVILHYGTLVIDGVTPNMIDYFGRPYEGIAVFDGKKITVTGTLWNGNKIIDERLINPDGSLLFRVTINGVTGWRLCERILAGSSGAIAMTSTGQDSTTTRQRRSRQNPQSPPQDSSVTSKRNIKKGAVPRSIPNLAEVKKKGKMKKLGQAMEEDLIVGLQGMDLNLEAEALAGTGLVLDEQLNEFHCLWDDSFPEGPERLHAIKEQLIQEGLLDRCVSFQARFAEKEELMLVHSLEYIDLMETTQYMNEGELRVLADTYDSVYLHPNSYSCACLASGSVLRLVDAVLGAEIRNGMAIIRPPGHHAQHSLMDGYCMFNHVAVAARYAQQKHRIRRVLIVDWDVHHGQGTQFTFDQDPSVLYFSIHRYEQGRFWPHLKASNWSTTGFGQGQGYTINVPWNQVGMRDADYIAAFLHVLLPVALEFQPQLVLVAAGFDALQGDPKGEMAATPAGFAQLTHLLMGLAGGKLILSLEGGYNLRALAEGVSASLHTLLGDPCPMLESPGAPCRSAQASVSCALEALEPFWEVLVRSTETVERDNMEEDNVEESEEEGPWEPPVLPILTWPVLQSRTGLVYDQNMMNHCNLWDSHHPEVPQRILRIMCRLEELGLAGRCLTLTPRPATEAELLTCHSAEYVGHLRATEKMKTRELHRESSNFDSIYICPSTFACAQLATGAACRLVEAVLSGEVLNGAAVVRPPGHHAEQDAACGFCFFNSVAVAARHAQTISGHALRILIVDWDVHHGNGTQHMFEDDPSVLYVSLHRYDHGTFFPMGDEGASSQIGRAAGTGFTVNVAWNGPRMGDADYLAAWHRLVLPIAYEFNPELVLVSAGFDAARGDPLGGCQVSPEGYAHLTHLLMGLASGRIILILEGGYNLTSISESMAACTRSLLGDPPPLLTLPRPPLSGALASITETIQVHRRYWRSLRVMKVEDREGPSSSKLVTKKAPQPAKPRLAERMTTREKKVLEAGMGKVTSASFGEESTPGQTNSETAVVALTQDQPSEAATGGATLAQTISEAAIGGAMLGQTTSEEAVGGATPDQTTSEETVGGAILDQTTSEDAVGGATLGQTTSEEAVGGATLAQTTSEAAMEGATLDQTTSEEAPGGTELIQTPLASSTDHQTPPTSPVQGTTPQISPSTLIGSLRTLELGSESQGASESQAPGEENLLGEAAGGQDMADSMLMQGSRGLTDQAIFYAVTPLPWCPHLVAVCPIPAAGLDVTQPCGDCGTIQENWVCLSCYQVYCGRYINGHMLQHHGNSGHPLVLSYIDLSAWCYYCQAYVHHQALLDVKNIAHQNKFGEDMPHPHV
T4 sequence (O15379 whole entry): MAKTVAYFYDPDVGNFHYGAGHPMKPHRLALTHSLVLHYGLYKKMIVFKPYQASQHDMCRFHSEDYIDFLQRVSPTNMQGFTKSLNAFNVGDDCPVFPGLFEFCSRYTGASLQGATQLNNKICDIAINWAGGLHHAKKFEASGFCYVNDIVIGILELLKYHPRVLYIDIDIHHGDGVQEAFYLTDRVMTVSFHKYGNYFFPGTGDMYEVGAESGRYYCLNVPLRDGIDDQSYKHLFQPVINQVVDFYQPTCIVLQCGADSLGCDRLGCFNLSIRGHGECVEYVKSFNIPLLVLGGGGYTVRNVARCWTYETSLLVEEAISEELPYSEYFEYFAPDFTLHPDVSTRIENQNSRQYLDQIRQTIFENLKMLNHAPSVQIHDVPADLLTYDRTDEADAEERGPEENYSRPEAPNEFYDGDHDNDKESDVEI
T8 sequence (Q16539 whole entry): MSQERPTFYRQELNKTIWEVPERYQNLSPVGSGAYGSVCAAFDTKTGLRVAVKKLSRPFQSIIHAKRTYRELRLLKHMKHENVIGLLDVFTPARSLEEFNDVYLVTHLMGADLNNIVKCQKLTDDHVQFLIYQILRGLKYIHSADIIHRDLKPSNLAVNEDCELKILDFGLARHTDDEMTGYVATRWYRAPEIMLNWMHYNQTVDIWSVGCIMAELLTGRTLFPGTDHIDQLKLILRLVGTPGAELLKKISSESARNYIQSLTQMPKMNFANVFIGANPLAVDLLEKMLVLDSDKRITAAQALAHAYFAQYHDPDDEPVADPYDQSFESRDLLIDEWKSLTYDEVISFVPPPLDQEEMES
T2 sequence (Q13547 whole entry, species assumed): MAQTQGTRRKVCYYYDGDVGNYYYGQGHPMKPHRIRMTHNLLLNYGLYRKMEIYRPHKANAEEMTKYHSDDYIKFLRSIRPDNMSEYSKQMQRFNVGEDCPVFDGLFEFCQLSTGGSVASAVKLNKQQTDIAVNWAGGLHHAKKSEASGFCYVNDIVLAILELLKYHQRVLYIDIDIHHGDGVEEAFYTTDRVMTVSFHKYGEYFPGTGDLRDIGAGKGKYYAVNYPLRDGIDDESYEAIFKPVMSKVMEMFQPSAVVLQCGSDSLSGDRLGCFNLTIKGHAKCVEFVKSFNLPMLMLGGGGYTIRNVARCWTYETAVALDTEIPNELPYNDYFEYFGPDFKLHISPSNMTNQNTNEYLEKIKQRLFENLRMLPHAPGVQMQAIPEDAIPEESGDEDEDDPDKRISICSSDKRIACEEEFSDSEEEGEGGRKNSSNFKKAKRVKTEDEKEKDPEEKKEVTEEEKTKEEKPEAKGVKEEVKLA
T6 sequence (Q9UBN7 with tags, fused parts or gaps): as the sequence (Q9UBN7 with tags, fused parts or gaps) above
T3 sequence (Q92769 whole entry): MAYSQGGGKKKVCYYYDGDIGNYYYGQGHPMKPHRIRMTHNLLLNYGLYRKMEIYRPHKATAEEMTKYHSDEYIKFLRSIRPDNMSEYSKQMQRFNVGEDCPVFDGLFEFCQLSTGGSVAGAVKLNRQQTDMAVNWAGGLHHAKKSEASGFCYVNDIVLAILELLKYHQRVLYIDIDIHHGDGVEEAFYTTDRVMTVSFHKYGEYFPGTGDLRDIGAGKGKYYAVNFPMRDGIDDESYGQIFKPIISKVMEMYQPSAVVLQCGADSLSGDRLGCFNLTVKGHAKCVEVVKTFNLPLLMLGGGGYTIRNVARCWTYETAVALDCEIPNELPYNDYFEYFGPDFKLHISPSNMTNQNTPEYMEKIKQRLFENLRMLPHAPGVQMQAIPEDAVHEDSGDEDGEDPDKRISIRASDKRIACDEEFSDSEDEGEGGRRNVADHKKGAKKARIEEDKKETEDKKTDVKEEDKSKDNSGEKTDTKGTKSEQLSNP

In the case of `O=C(CCCCCCC(=O)Nc1ccccc1)NO` [SAHA, suberoylanilide hydroxamic acid], the “binding efficiency to HDAC6” value at NanoLuc-HDAC6 [1] is “high binding efficiency”.
Take `Cc1nc(Nc2ncc(C(=O)Nc3c(C)cccc3Cl)s2)cc(N2CCN(CCOC(=O)NCCCCCNC(=O)c3ccc(C(=O)O)c(C4=c5cc6c7c(c5Oc5c4cc4c8c5CCCN8CCCC4)CCC[N+]=7CCCC6)c3)CC2)n1` [PBI-5170]: the “selectivity of tracer (hits in NanoLuc fusion array)” value in assay [2] was “ABL1, Src, LCK, MEK5, MAPK11 and MAPK14”.
As for `O=C(CCCCCCC(=O)Nc1ccc(CNC(=O)c2ccc(C(=O)O)c(C3=c4cc5c6c(c4Oc4c3cc3c7c4CCCN7CCCC3)CCC[N+]=6CCCC5)c2)cc1)NO` [PBI-4968], the “EC50 value for binding within living cells” value at NanoLuc-HDAC6 [3] is given as “left-shifted EC50 value”. For the same compound, the “specific BRET signal” value at NanoLuc-HDAC6 [3] is recorded as “superior, specific BRET signal”. Moreover, the BRET with tracer entry is on record as “specific BRET signals” at HDAC1; “specific BRET signals” on HDAC2; “specific BRET signals” at HDAC3; “specific BRET signals” on HDAC8; “specific BRET” at HDAC6; “specific BRET” at HDAC10. For the same compound, the BRET with tracer entry in the assay on Class IIa HDACs was “do not generate significant BRET”.
`CC(C)(C)c1cc(NC(=O)Nc2ccccc2)n(-c2cccc(CNC(=O)CN)c2)n1` [PBI-4838]: the response on NanoLuc-p38alpha was half-maximal at 38 nM (EC50). Besides, the “selectivity of tracer (targets giving specific BRET)” value in [4] was “Jnk2, p38beta and p38alpha”. The “specific BRET signal” value on PKCalpha-NanoLuc [5], at PKCalpha-NanoLuc [6] and at NanoLuc-HDAC6 [7] was “relatively little specific BRET signal” throughout. Further, the “selectivity of tracer (hits in NanoLuc fusion array)” value in [2] was “JNk2, JNk3, MAPK14, MAPK11 and MAPK13”.
Turning to `COc1cc2c(cc1-c1c(C)noc1C)ncc1[nH]c(=O)n([C@H](C)c3ccccn3)c12` [IBET 151], the “effect on BRET signal (competitive binding)” value in assay [8] is “diminished in a dose-dependent manner”.

The EC50 is the midpoint of the concentration-response curve. A higher EC50 goes with weaker potency.

For the origin of these results see patent publication US10024862B2, “Recognition of cellular target binding by a bioactive agent using intracellular bioluminescence resonance energy transfer” (Promega Corporation, priority 2012, dated 2018).
